Reference: ChEMBL document CHEMBL3091330, “Discovery of 3,4-Dihydropyrimidin-2(1H)-ones As a Novel Class of Potent and Selective A2B Adenosine Receptor Antagonists” (ACS Med Chem Lett, 2013)

Assays:
[1] = target: T1, Adenosine receptor A3 (Homo sapiens) (UniProt P0DMS8); assay: Displacement of [3H]NECA from adenosine A3 receptor in human HeLa cells at 10 uM after 180 mins; type: cell-based
T1 sequence (whole entry): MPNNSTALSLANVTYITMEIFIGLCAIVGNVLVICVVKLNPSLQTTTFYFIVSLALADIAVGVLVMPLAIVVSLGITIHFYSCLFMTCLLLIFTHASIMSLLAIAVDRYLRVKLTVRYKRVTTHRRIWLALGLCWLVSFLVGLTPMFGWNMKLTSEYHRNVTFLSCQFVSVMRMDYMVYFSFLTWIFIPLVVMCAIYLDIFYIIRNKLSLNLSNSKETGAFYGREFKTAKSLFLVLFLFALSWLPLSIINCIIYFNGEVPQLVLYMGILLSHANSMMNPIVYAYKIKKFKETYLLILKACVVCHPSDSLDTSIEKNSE

[2] = target: T2, Adenosine receptor A2b (Homo sapiens, UniProt P29275); assay: Displacement of [3H]DPCPX from human adenosine A2B receptor expressed in HEK293 cells after 30 mins by Scatchard plot analysis; type: cell-based
T2 sequence (P29275 whole entry): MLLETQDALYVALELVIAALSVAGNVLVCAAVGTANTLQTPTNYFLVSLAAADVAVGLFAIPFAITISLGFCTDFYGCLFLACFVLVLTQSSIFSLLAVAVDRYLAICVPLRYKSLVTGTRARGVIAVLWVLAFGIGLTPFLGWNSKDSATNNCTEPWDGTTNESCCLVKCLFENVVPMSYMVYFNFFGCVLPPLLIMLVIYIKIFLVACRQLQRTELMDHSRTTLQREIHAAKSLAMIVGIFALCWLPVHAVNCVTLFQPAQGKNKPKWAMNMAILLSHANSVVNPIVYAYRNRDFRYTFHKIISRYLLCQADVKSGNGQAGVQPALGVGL

[3] = target: T3, Adenosine receptor A2a (Homo sapiens, UniProt P29274); assay: Displacement of [3H]ZM241385 from adenosine A2A receptor in human HeLa cells at 10 uM after 30 mins; type: cell-based
T3 sequence (P29274 whole entry): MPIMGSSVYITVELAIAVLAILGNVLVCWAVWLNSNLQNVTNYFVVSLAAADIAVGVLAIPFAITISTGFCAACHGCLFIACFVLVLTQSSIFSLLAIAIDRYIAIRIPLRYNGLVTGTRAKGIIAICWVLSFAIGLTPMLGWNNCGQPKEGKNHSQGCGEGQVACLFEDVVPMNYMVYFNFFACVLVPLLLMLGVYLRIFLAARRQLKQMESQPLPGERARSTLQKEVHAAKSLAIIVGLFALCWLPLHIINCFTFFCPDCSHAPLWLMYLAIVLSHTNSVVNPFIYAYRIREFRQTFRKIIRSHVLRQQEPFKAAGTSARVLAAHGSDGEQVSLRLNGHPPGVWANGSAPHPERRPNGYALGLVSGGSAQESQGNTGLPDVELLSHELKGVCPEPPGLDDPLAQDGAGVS

[4] = target: T4, Adenosine receptor A1 (Homo sapiens) (UniProt P30542); assay: Displacement of [3H]DPCPX from human adenosine A1 receptor expressed in CHO cells at 10 uM after 60 mins; type: cell-based
T4 sequence (whole entry): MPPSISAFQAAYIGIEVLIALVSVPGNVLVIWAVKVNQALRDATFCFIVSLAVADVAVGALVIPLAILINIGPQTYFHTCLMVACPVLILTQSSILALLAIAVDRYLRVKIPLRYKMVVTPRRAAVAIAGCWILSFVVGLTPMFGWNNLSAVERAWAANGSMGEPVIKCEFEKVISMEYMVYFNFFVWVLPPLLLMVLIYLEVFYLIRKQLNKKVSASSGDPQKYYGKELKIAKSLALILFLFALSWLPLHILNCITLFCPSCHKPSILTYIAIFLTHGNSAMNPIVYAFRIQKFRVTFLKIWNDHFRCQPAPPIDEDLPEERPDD

[5] = target: Cytochrome P450 3A4 (Homo sapiens, UniProt P08684); assay: Inhibition of human recombinant CYP3A4 expressed in baculosomes at 100 fold Ki; type: ADME; conditions: recombinant enzyme
Cytochrome P450 3A4, sequence (P08684 whole entry): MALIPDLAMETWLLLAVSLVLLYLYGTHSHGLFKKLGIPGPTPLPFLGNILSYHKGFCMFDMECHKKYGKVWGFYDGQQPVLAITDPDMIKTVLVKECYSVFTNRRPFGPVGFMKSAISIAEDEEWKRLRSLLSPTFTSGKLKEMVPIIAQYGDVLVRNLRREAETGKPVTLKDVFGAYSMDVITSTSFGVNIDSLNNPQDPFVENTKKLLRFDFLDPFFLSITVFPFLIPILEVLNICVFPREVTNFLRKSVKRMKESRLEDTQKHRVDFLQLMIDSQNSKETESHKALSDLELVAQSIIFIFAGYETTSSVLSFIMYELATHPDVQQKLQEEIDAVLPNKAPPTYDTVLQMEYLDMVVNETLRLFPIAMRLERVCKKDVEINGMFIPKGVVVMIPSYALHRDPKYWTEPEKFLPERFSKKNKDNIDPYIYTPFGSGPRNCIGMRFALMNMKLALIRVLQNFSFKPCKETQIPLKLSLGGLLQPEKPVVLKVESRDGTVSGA

[6] = target: T5, Adenosine receptor A1 (Homo sapiens, UniProt P30542); assay: Displacement of [3H]DPCPX from human adenosine A1 receptor expressed in CHO cells after 60 mins; type: cell-based
T5 sequence (P30542 whole entry): T4 sequence (whole entry)

[7] = target: T6, Cytochrome P450 1A2 (Homo sapiens, UniProt P05177); assay: Inhibition of human recombinant CYP1A2 expressed in baculosomes at 100 fold Ki; type: ADME; conditions: recombinant enzyme
T6 sequence (P05177 whole entry): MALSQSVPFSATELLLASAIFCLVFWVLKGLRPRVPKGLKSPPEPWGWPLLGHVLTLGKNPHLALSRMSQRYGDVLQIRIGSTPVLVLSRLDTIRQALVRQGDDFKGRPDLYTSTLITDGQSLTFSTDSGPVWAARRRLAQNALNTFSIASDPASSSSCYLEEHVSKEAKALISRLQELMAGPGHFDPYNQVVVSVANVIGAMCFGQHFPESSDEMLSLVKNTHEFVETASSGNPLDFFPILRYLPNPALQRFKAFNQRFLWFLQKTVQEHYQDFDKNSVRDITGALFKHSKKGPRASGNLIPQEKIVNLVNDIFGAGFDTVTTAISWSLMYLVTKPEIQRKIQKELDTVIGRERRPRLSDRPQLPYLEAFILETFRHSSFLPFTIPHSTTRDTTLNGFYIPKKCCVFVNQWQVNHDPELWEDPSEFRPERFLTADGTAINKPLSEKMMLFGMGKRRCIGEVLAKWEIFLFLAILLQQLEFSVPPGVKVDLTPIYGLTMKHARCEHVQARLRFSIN

[8] = target: T3, Adenosine receptor A2a; assay: Displacement of [3H]ZM241385 from adenosine A2A receptor in human HeLa cells after 30 mins; type: cell-based
[9] = target: T7, Adenosine receptor A2b (Homo sapiens) (UniProt P29275); assay: Antagonist activity at human adenosine A2B receptor expressed in HEK293 cells assessed as inhibition of NECA-stimulated cAMP accumulation incubated for 15 mins prior to NECA-challenge measured after 15 mins by spectrophotometry; type: functional, cell-based
T7 sequence (whole entry): T2 sequence (P29275 whole entry)

[10] = target: T8, Adenosine receptor A3 (Homo sapiens, UniProt P0DMS8); assay: Displacement of [3H]NECA from adenosine A3 receptor in human HeLa cells after 180 mins; type: cell-based
T8 sequence (P0DMS8 whole entry): T1 sequence (whole entry)

[11] = target: T7, Adenosine receptor A2b (Homo sapiens); assay: Displacement of [3H]DPCPX from human from adenosine A2B receptor in HEK293 cells at 10 uM after 30 mins by Scatchard plot analysis; type: cell-based

Structure (SMILES) | inhibition [1] | Ki [2] | inhibition [3] | inhibition [4] | inhibition (INH) [5] | Ki [6] | inhibition (INH) [7] | Ki [8] | Kb [9] | Ki [10] | inhibition [11]
CCOC(=O)c1c(-c2ccco2)nc(=O)[nH]c1C | 15% | 3.43 µM | 11% | 6% | – | – | – | – | – | – | –
CCOC(=O)C1=C(C)N=C(S)NC1c1ccco1 (racemic) | 5% | 0.608 µM | 32% | 1% | – | – | – | – | – | – | –
CCOC(=O)C1=C(C)N=C(S)NC1c1cccs1 (racemic) | 4% | 6.25 µM | 23% | 2% | – | – | – | – | – | – | –
CC1=C(C(=O)OC(C)C)C(c2ccsc2)NC(=O)N1C (racemic) | 14% | 1.81 µM | 20% | 33% | – | – | – | – | – | – | –
CC1=C(C(=O)OC(C)C)C(c2ccco2)NC(=O)N1 (racemic) | 4% | 0.0408 µM | 23% | 18% | – | – | – | – | – | – | –
CCOC(=O)C1=C(C)N=C(S)NC1c1ccsc1 (racemic) | 2% | 1.1 µM | 28% | 23% | – | – | – | – | – | – | –
CCOC(=O)C1=C(C)NC(=O)NC1c1ccoc1 (racemic) | 1% | 0.0396 µM | 24% | 21% | – | – | – | – | – | – | –
CC1=C(C(=O)OC(C)C)C(c2cccs2)NC(S)=N1 (racemic) | 20% | 1.57 µM | 15% | 23% | – | – | – | – | – | – | –
CCOC(=O)C1=C(C)NC(=O)NC1c1ccsc1 (racemic) | 11% | 0.0236 µM | 34% | 16% | Not Active | > 10 µM | Not Active | > 10 µM | 0.0252 µM | > 10 µM | –
COC(=O)C1=C(C)NC(=O)NC1c1ccco1 (racemic) | 13% | 2.16 µM | 25% | 34% | – | – | – | – | – | – | –
CCOC(=O)C1=C(C)NC(=O)NC1c1ccco1 (racemic) | 2% | 0.586 µM | 31% | 15% | – | – | – | – | – | – | –
CCOC(=O)C1=C(C)NC(=O)N(C(C)=O)C1c1ccco1 (racemic) | 1% | 3.11 µM | 24% | 19% | – | – | – | – | – | – | –
CC1=C(C(=O)OC(C)C)C(c2ccoc2)NC(=O)N1 (racemic) | 3% | 1.49 µM | 26% | 25% | – | – | – | – | – | – | –
CCOC(=O)C1=C(C)NC(=S)NC1c1ccoc1 (racemic) | 15% | 0.0431 µM | 25% | 18% | – | – | – | – | – | – | –
CC1=C(C(=O)OC(C)C)C(c2ccoc2)NC(=S)N1 (racemic) | 23% | 0.194 µM | 33% | 18% | – | – | – | – | – | – | –
CCOC(=O)C1=C(C)N(C)C(=O)NC1c1ccoc1 (racemic) | 1% | 4.26 µM | 24% | 17% | – | – | – | – | – | – | –
CC1=C(C(=O)OC(C)C)C(c2ccsc2)NC(=O)N1 (racemic) | 5% | 0.0566 µM | 25% | 26% | – | – | – | – | – | – | –
CC1=C(C(=O)OC(C)C)C(c2ccsc2)NC(=S)N1 (racemic) | 3% | 0.416 µM | 20% | 16% | – | – | – | – | – | – | –

Structure (SMILES) | inhibition [1] | Ki [2] | inhibition [3] | inhibition [4] | inhibition (INH) [5] | Ki [6] | inhibition (INH) [7] | Ki [8] | Kb [9] | Ki [10] | inhibition [11]
CCOC(=O)C1=C(C)N(C)C(=O)NC1c1ccsc1 (racemic) | 3% | 2.97 µM | 24% | 30% | – | – | – | – | – | – | –
CCCOC(=O)C1=C(C)NC(=O)NC1c1ccco1 (racemic) | 2% | 0.206 µM | 55% | 43% | – | – | – | – | – | – | –
CCOC(=O)C1=C(CC)NC(=O)NC1c1ccco1 (racemic) | 3% | 0.715 µM | 41% | 29% | – | – | – | – | – | – | –
CCCC1=C(C(=O)OCC)C(c2ccco2)NC(=O)N1 (racemic) | 19% | 0.256 µM | – | 50% | – | – | – | 0.602 µM | – | – | –
CC1=C(C(=O)OC(C)C)C(c2ccco2)NC(=S)N1 (racemic) | 4% | 0.0102 µM | 18% | 15% | Not Active | > 10 µM | Not Active | > 10 µM | 0.0047 µM | > 10 µM | –
CCOC(=O)C1=C(C)N(C)C(=O)NC1c1ccco1 (racemic) | 25% | 6.54 µM | 5% | 17% | – | – | – | – | – | – | –
CC1=C(C(=O)OC(C)C)C(c2ccco2)NC(=O)N1C (racemic) | 18% | 1.15 µM | 31% | 28% | – | – | – | – | – | – | –
CC(=O)C1=C(C)NC(=O)NC1c1ccco1 (racemic) | 14% | – | 21% | 30% | – | – | – | – | – | – | 38%
CC1=C(C(=O)Nc2ccccc2)C(c2ccco2)NC(=O)N1 (racemic) | 5% | – | 7% | 24% | – | – | – | – | – | – | 31%
CC1=C(C(=O)OC(C)(C)C)C(c2ccco2)NC(=O)N1 (racemic) | 7% | – | 7% | 4% | – | – | – | – | – | – | 44%
CC1=C(C(=O)OC(C)C)C(c2cccs2)NC(=O)N1 (racemic) | 14% | – | 19% | 37% | – | – | – | – | – | – | 44%
CC1=C(C(=O)OC(C)C)C(c2cccs2)NC(=O)N1C (racemic) | 18% | – | 24% | 22% | – | – | – | – | – | – | 28%
CC1=C(C(=O)OC(C)C)C(c2ccoc2)NC(=O)N1C (racemic) | 1% | – | 2% | 23% | – | – | – | – | – | – | 35%
CC1=C(C(N)=O)C(c2ccco2)NC(=O)N1 (racemic) | 2% | – | 1% | 2% | – | – | – | – | – | – | 2%
CCOC(=O)C1=C(C(F)(F)F)NC(=O)NC1c1ccco1 (racemic) | 2% | – | 32% | 15% | – | – | – | – | – | – | 2%
CCOC(=O)C1=C(C)N(C)C(=O)NC1c1cccs1 (racemic) | 6% | – | 3% | 2% | – | – | – | – | – | – | 11%
CCOC(=O)C1=C(C)NC(=O)NC1c1cccs1 (racemic) | 2% | – | 33% | 3% | – | – | – | – | – | – | 39%
CCOC(=O)C1=C(c2ccccc2)NC(=O)NC1c1ccco1 (racemic) | 2% | – | 17% | 3% | – | – | – | – | – | – | 28%
